Measured values taken from ChEMBL document CHEMBL1201862, “PubChem BioAssay data set” (2004).
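Grown in 96-well plates, cells were treated for 48 hours with each compound at five concentrations. Insufficient inhibition: endpoint recorded as highest concentration tested. GI50 = concentration required for 50% inhibition of growth.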 The source made the active and inactive calls. Rule as the data show it: active = GI50 up to about 1.1 µM and inactive = higher.

Key:
Test in all cases: growth of human tumour cells (NCI), 48 h
[1] = system: SF-295
[2] = system: K562
[3] = system: MDA-N
[4] = system: HOP-62
[5] = system: NCI-H226
[6] = system: MDA-MB-231
[7] = system: KM12
[8] = system: ACHN
[9] = system: CCRF-CEM
[10] = system: NCI-H23
[11] = system: SW-620
[12] = system: UACC-257
[13] = system: NCI/ADR-RES
[14] = system: A549
[15] = system: MOLT-4
[16] = system: SK-MEL-2
[17] = system: SNB-19
[18] = system: CAKI-1
[19] = system: OVCAR-3
[20] = system: DLD-1

SMILES	GI50 [1]	GI50 [2]	GI50 [3]	GI50 [4]	GI50 [5]	GI50 [6]	GI50 [7]	GI50 [8]	GI50 [9]	GI50 [10]	GI50 [11]	GI50 [12]	GI50 [13]	GI50 [14]	GI50 [15]	GI50 [16]	GI50 [17]	GI50 [18]	GI50 [19]	GI50 [20]
C=C1C(=O)O[C@@H]2[C@H]1C[C@H](I)[C@@]1(C)CC[C@H](O1)[C@](C)(I)CCCC(C)[C@@H]2O (some centres not stated)	16 µM (inactive)	2.37 µM (inactive)	2.7 µM (inactive)	19.4 µM (inactive)	1.91 µM (inactive)	4.22 µM (inactive)	9.04 µM (inactive)	1.79 µM (inactive)	0.384 µM (active)	7.43 µM (inactive)	1.81 µM (inactive)	6.1 µM (inactive)	3.17 µM (inactive)	9.79 µM (inactive)	1.49 µM (inactive)	12.9 µM (inactive)	16.4 µM (inactive)	1.96 µM (inactive)	2.64 µM (inactive)	–
Cc1ccc(S(=O)OCc2c(C)c(C)c(COS(=O)c3ccc(C)cc3)c(C)c2C)cc1 (configuration not stated)	> 100 µM (inactive)	65.5 µM (inactive)	–	> 100 µM (inactive)	> 100 µM (inactive)	–	> 100 µM (inactive)	> 100 µM (inactive)	–	> 100 µM (inactive)	> 100 µM (inactive)	> 100 µM (inactive)	–	> 100 µM (inactive)	> 100 µM (inactive)	–	> 100 µM (inactive)	> 100 µM (inactive)	> 100 µM (inactive)	> 100 µM (inactive)
CNC(=O)CN(CC(=O)O)C(=O)NC	> 100 µM (inactive)	> 100 µM (inactive)	–	> 100 µM (inactive)	–	–	> 100 µM (inactive)	> 100 µM (inactive)	> 100 µM (inactive)	> 100 µM (inactive)	> 100 µM (inactive)	> 100 µM (inactive)	–	> 100 µM (inactive)	> 100 µM (inactive)	> 100 µM (inactive)	> 100 µM (inactive)	> 100 µM (inactive)	> 100 µM (inactive)	> 100 µM (inactive)
CNCC(SC)c1ccc(O)c(O)c1 (configuration not stated)	> 100 µM (inactive)	23.7 µM (inactive)	18.5 µM (inactive)	36.4 µM (inactive)	> 100 µM (inactive)	28.2 µM (inactive)	> 100 µM (inactive)	17.7 µM (inactive)	2.67 µM (inactive)	31 µM (inactive)	19.4 µM (inactive)	14.1 µM (inactive)	34.9 µM (inactive)	> 100 µM (inactive)	17.2 µM (inactive)	> 100 µM (inactive)	> 100 µM (inactive)	20.5 µM (inactive)	14.1 µM (inactive)	–
CCCSc1ccc2[nH]c(N3C(=O)/C(=C/c4ccc(SC)cc4)N=C3c3ccccc3)cc2c1	29.7 µM (inactive)	0.355 µM (active)	6.56 µM (inactive)	42.6 µM (inactive)	> 50 µM (inactive)	> 50 µM (inactive)	11 µM (inactive)	> 50 µM (inactive)	13.5 µM (inactive)	> 34.4 µM (inactive)	18.5 µM (inactive)	17.3 µM (inactive)	> 33 µM (inactive)	19.5 µM (inactive)	1.87 µM (inactive)	24.4 µM (inactive)	29.1 µM (inactive)	38.8 µM (inactive)	24.6 µM (inactive)	–
O=C1Nc2ccccc2C(=O)/C1=C/NC(=S)NC1CCCCC1	> 100 µM (inactive)	> 100 µM (inactive)	> 100 µM (inactive)	> 100 µM (inactive)	> 100 µM (inactive)	> 100 µM (inactive)	> 100 µM (inactive)	> 100 µM (inactive)	> 100 µM (inactive)	> 100 µM (inactive)	> 100 µM (inactive)	> 100 µM (inactive)	> 100 µM (inactive)	> 100 µM (inactive)	> 100 µM (inactive)	> 100 µM (inactive)	> 100 µM (inactive)	> 100 µM (inactive)	> 100 µM (inactive)	–
N#CCN1CCOCCOCCN(CC#N)CCOCCOCC1	> 100 µM (inactive)	> 100 µM (inactive)	–	> 100 µM (inactive)	> 100 µM (inactive)	–	–	> 100 µM (inactive)	> 100 µM (inactive)	> 100 µM (inactive)	> 100 µM (inactive)	> 100 µM (inactive)	–	> 100 µM (inactive)	> 100 µM (inactive)	–	> 100 µM (inactive)	> 100 µM (inactive)	> 100 µM (inactive)	> 100 µM (inactive)
CC(=O)Oc1cc2c(cc1OC(C)=O)C1(C)CCC2(C)c2cc(OC(C)=O)c(OC(C)=O)cc21	24.5 µM (inactive)	5.6 µM (inactive)	–	21.6 µM (inactive)	–	–	11.6 µM (inactive)	26.1 µM (inactive)	2.87 µM (inactive)	43.2 µM (inactive)	7.73 µM (inactive)	11.3 µM (inactive)	–	34 µM (inactive)	8.2 µM (inactive)	16.7 µM (inactive)	4.75 µM (inactive)	8.55 µM (inactive)	10.2 µM (inactive)	17.7 µM (inactive)
CC(C)N1CN(C(C(=O)N[C@@H]2C(=O)N3C2SC(C)(C)C3C(=O)O)c2ccccc2)CSC1=S (some centres not stated)	> 100 µM (inactive)	30.6 µM (inactive)	–	> 100 µM (inactive)	–	–	> 100 µM (inactive)	> 100 µM (inactive)	> 100 µM (inactive)	> 100 µM (inactive)	–	> 100 µM (inactive)	–	–	> 100 µM (inactive)	> 100 µM (inactive)	> 100 µM (inactive)	> 100 µM (inactive)	> 100 µM (inactive)	> 100 µM (inactive)
CCOC(=O)C1(N)CCc2[nH][nH]c(=O)c2C1 (configuration not stated)	> 100 µM (inactive)	> 100 µM (inactive)	> 100 µM (inactive)	> 100 µM (inactive)	> 100 µM (inactive)	> 100 µM (inactive)	> 100 µM (inactive)	> 100 µM (inactive)	> 100 µM (inactive)	> 100 µM (inactive)	> 100 µM (inactive)	> 100 µM (inactive)	> 100 µM (inactive)	> 100 µM (inactive)	> 100 µM (inactive)	> 100 µM (inactive)	> 100 µM (inactive)	> 100 µM (inactive)	> 100 µM (inactive)	–
CC(O)CN1c2ccccc2Sc2ccc(Cl)cc21 (configuration not stated)	> 10 µM (inactive)	> 10 µM (inactive)	> 10 µM (inactive)	> 10 µM (inactive)	> 10 µM (inactive)	> 10 µM (inactive)	> 10 µM (inactive)	> 10 µM (inactive)	> 10 µM (inactive)	> 10 µM (inactive)	> 10 µM (inactive)	> 10 µM (inactive)	> 10 µM (inactive)	> 10 µM (inactive)	> 10 µM (inactive)	> 10 µM (inactive)	> 10 µM (inactive)	> 10 µM (inactive)	> 10 µM (inactive)	–
C[N+](C)([O-])CCC=C1c2ccccc2CCc2ccccc21	27.5 µM (inactive)	19.2 µM (inactive)	19.5 µM (inactive)	15.6 µM (inactive)	31.4 µM (inactive)	30.7 µM (inactive)	18.1 µM (inactive)	35 µM (inactive)	18.6 µM (inactive)	34.1 µM (inactive)	21.8 µM (inactive)	35.5 µM (inactive)	22 µM (inactive)	28.1 µM (inactive)	17.2 µM (inactive)	18.5 µM (inactive)	35.6 µM (inactive)	28.8 µM (inactive)	23.6 µM (inactive)	–
CCOC(=O)[C@@H]1[C@@H](c2ccccc2)N(C)O[C@@]1(c1ccccc1)C(F)(F)F	64.6 µM (inactive)	> 10 µM (inactive)	52.8 µM (inactive)	> 100 µM (inactive)	23.1 µM (inactive)	> 100 µM (inactive)	58.9 µM (inactive)	44.8 µM (inactive)	20.1 µM (inactive)	59.6 µM (inactive)	43.7 µM (inactive)	55 µM (inactive)	> 100 µM (inactive)	47.3 µM (inactive)	> 10 µM (inactive)	25.5 µM (inactive)	> 100 µM (inactive)	> 100 µM (inactive)	97.1 µM (inactive)	–
Cc1ccc(N2CCC3(CC2)OCCO3)cc1	> 100 µM (inactive)	> 100 µM (inactive)	> 100 µM (inactive)	> 100 µM (inactive)	> 100 µM (inactive)	> 100 µM (inactive)	> 100 µM (inactive)	> 100 µM (inactive)	> 100 µM (inactive)	> 100 µM (inactive)	> 100 µM (inactive)	> 100 µM (inactive)	> 100 µM (inactive)	> 100 µM (inactive)	> 100 µM (inactive)	> 100 µM (inactive)	> 100 µM (inactive)	> 100 µM (inactive)	> 100 µM (inactive)	–
c1ccc([B-]2(c3ccccc3)OCCc3cccc[n+]32)cc1	67 µM (inactive)	> 100 µM (inactive)	50.2 µM (inactive)	> 100 µM (inactive)	50.1 µM (inactive)	84.5 µM (inactive)	96.4 µM (inactive)	37.9 µM (inactive)	23.4 µM (inactive)	48.8 µM (inactive)	51.9 µM (inactive)	80.7 µM (inactive)	59 µM (inactive)	84.9 µM (inactive)	56.2 µM (inactive)	75.9 µM (inactive)	> 100 µM (inactive)	33 µM (inactive)	51.8 µM (inactive)	–
CN1CCN(CN2C(=O)C3C4C=CC(C3C2=O)C2C3C(=O)N(CN5CCN(C)CC5)C(=O)C3C42)CC1 (configuration not stated)	–	26.9 µM (inactive)	–	70 µM (inactive)	–	–	20.1 µM (inactive)	28.2 µM (inactive)	29.2 µM (inactive)	21.2 µM (inactive)	19 µM (inactive)	–	–	32.4 µM (inactive)	22.2 µM (inactive)	–	–	–	21.4 µM (inactive)	22.5 µM (inactive)
